Assay results from patent publication US20090028839A1, “Compositions and methods for the prophylaxis and treatment of vaginal infections” (priority 2004, published 2009).

Columns and labels:
Type in all cases: cell-based
[1] = test system: clinical isolates of G. vaginalis; test: Antibiotic resistance of clinical isolates
Description: The ability of G. vaginalis to induce HIV expression in vitro was investigated in chronically infected U1 cells by measuring HIV p24 antigen concentration. […] Moreover, we have also determined that clinical isolates of G. vaginalis are often resistant to metronidazol (73%), and clindamycin (38%), two drugs of choice for treatment of BV. […] Thus, the major BV-associated pathogens are able to increase sensitivity of human cells to HIV.

E. coli = test: Agar-well inhibition zones of Lactobacillus culture supernatants; conditions: 400 μl culture supernatant in agar well
Experimental: (§1) To test for their antimicrobial activity, all Lactobacillus isolates were grown anaerobically (to eliminate H2O2 production) in an MRS broth for 24 hours. The supernatants were collected and filter sterilized. Agar plates (Human Blood Tween agar for G.vaginalis, and Tryptic Soy agar with 5% sheep blood for other organisms) were inoculated with tested bacteria and 400 μl of each supernatant was added into the wells punched in the agar plates. The antimicrobial activity was determined by the size of the inhibition zones, similar to the disk method used for the determination of antibiotic activity. From our collection of clinical lactobacilli strains, we selected the strain identified as L. rhamnosus 160 since its extracellular product was characterized as having the highest antimicrobial activity, as shown in Table 1.

Group B Streptococci = test: as above; conditions: 400 μl culture supernatant in agar well
Experimental: as §1

Staphylococcus sp. = test: as above; conditions: 400 μl culture supernatant in agar well
Experimental: as §1

G. vaginalis ATCC 14018 = test: as above; conditions: 400 μl culture supernatant in agar well
Experimental: as §1

Structure (SMILES)	Share of clinical isolates of G. vaginalis resistant [1] [%]	Zone of inhibition (E. coli) [mm]	Zone of inhibition (Group B Streptococci) [mm]	Zone of inhibition (Staphylococcus sp.) [mm]	Zone of inhibition (G. vaginalis ATCC 14018) [mm]
CCC[C@@H]1C[C@@H](C(=O)N[C@@H]([C@H]2O[C@H](SC)[C@H](O)[C@@H](O)[C@H]2O)[C@H](C)Cl)N(C)C1 [clindamycin]	38				
CC(O)C(=O)O (stereo not drawn) [Lactic acid]		1.5	1.5	1.5	1.5
Cc1ncc([N+](=O)[O-])n1CCO [metronidazol]	73				
